Where two headings read alike, the source gives them in different places.
Tested on: HBV rcDNA in HepDE19 cells
Assay: HepDE19 assay with bDNA quantitation of HBV rcDNA
Format: cell-based, hepatitis B virus
Details: read-out: DE-19bDNA EC50
Summary of the method: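 HepDE19 cells were induced by tetracycline withdrawal, then treated with compounds (0.5% DMSO final) for 7 days at 37 °C. HBV rcDNA measured by bDNA assay with HBV-specific probes. Viability assessed on replicate plates (5,000 cells/well, 4 days) by CellTiter-Glo ATP content.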

[1] = Hepatitis B virus, HepDE19, 168 h
[2] = Hepatitis B virus, HepDE19, 168 h, HepDE19 cells, 7 day incubation, rcDNA measured by Quantigene 2.0 bDNA assay, top concentration 25 µM
[3] = HepDE19 cells, 7 day incubation, rcDNA measured by Quantigene 2.0 bDNA assay, top concentration 25 µM

Structure (SMILES): C[C@H](c1n[nH]c(=O)c2cc(F)c(F)cc12)N(C)C(=O)c1cc2sc(Cl)cc2[nH]1 [Compound 79, (R)-2-chloro-N-(1-(6,7-difluoro-4-oxo-3,4-dihydrophthalazin-1-yl)ethyl)-N-methyl-4H-thieno[3,2-b]pyrrole-5-carboxamide]
- EC50 [1]: 30 nM

Structure (SMILES): CC(c1n[nH]c(=O)c2cc(F)c(F)cc12)N(C)C(=O)c1ccc(F)c(C(F)F)c1 (racemic) [Compound 72, N-(1-(6,7-difluoro-4-oxo-3,4-dihydrophthalazin-1-yl)ethyl)-3-(difluoromethyl)-4-fluoro-N-methylbenzamide]
- EC50 [2]: 340 nM

Structure (SMILES): C[C@H](c1n[nH]c(=O)c2cc(F)c(F)cc12)N(C)C(=O)Nc1ccc(F)cc1 [Compound 43, (R)(1-(6,7-difluoro-4-oxo-3,4-dihydrophthalazinyl)ethyl)-3-(4-fluorophenyl)methylurea]
- EC50 [1]: 59 nM

Structure (SMILES): CC(c1n[nH]c(=O)c2cc(F)c(F)cc12)N(C)C(=O)c1cc2c(F)cc(F)cc2[nH]1 (racemic) [Compound 60, N-(1-(6,7-difluoro-4-oxo-3,4-dihydrophthalazin-1-yl)ethyl)-4,6-difluoro-N-methyl-1H-indole-2-carboxamide]
- EC50 [2]: 50 nM

Structure (SMILES): CC(C)CN(C(=O)Nc1ccc(F)cc1)C(C)c1n[nH]c(=O)c2cc(F)ccc12 (single isomer, unassigned) [Compound 20, 1-(1-(6-fluoro-4-oxo-3,4-dihydrophthalazin-1-yl)ethyl)-3-(4-fluorophenyl)-1-isobutylurea]
- EC50 [3]: 8 nM

Structure (SMILES): CC(c1n[nH]c(=O)c2cc(F)c(F)cc12)N(C)C(=O)c1ccc2ccn(C)c2c1 (single isomer, unassigned) [Compound 105, N-(1-(6,7-difluoro-4-oxo-3,4-dihydrophthalazin-1-yl)ethyl)-N,1-dimethyl-1H-indole-6-carboxamide]
- EC50 [3]: 1000 nM

Structure (SMILES): CC(c1n[nH]c(=O)c2cc(F)c(F)cc12)N(C)C(=O)c1cc(F)c(F)c(F)c1 (racemic) [Compound 67, N-(1-(6,7-difluoro-4-oxo-3,4-dihydrophthalazin-1-yl)ethyl)-3,4,5-trifluoro-N-methylbenzamide]
- EC50 [2]: 740 nM

Structure (SMILES): CCN(C(=O)c1cc2cc(F)ccc2[nH]1)C(C)c1n[nH]c(=O)c2cc(F)c(F)cc12 (racemic) [Compound 47, N-(1-(6,7-difluoro-4-oxo-3,4-dihydrophthalazin-1-yl)ethyl)-N-ethyl-5-fluoro-1H-indole-2-carboxamide]
- EC50 [1]: 41 nM

Structure (SMILES): CC(c1nn(C)c(=O)c2cc(F)c(F)cc12)N(C)C(=O)Nc1ccc(F)c(Cl)c1 (racemic) [Compound 22, 3-(3-chloro-4-fluoro-phenyl)-1-[1-(6,7-difluoro-3-methyl-4-oxo-phthalazin-1-yl)ethyl]-1-methyl-urea]
- EC50 [2]: 26 nM

Structure (SMILES): CC(C)CN(C(=O)Nc1ccc(F)c(Cl)c1)C(C)c1nn(C)c(=O)c2cc(F)c(F)cc12 (racemic) [Compound 23, 3-(3-chloro-4-fluorophenyl)-1-(1-(6,7-difluoro-3-methyl-4-oxo-3,4-dihydrophthalazin-1-yl)ethyl)-1-isobutylurea]
- EC50 [2]: 3 nM

Structure (SMILES): CC(C)CN(C(=O)Nc1ccc(F)cc1)C(C)c1n[nH]c(=O)c2cc(F)ccc12 (racemic) [Compound 16, 1-(1-(6-fluoro-4-oxo-3,4-dihydrophthalazin-1-yl)ethyl)-3-(4-fluorophenyl)-1-isobutylurea]
- EC50 [2]: 16 nM

Structure (SMILES): CC(C)CN(C(=O)Nc1ccc(F)c(Cl)c1)C(C)c1n[nH]c(=O)c2ccccc12 (single isomer, unassigned) [Compound 6, 3-(3-chloro-4-fluoro-phenyl)-1-isobutyl-1-[1-(4-oxo-3H-phthalazin-1-yl)ethyl]urea]
- EC50 [3]: 1700 nM

Structure (SMILES): CC(C)CN(C(=O)c1cc2ccccc2[nH]1)C(C)c1n[nH]c(=O)c2cc(F)c(F)cc12 (racemic) [Compound 56, N-(1-(6,7-difluoro-4-oxo-3,4-dihydrophthalazin-l-yl)ethyl)-N-isobutyl-1H-indole-2-carboxamide]
- EC50 [2]: 390 nM

Structure (SMILES): CC(C)CN(C(=O)Nc1ccc(F)c(Cl)c1)C(C)c1n[nH]c(=O)c2cc(Cl)ccc12 (racemic) [Compound 10, 3-(3-chloro-4-fluorophenyl)-1-(1-(6-chloro-4-oxo-3,4-dihydrophthalazin-1-yl)ethyl)-1-isobutylurea]
- EC50 [2]: 20 nM

Structure (SMILES): CC(c1n[nH]c(=O)c2cc(F)c(F)cc12)N(C)C(=O)c1cc2ccc(F)cc2[nH]1 (racemic) [Compound 52, N-(1-(6,7-difluoro-4-oxo-3,4-dihydrophthalazin-1-yl)ethyl)-6-fluoro-N-methyl-1H-indole-2-carboxamide]
- EC50 [2]: 43 nM

Structure (SMILES): CC(c1n[nH]c(=O)c2cc(F)c(F)cc12)N(C)C(=O)c1cc2c(C(F)F)cccn2c1 (single isomer, unassigned) [Compound 98, N-(1-(6,7-difluoro-4-oxo-3,4-dihydrophthalazin-1-yl)ethyl)-8-(difluoromethyl)-N-methylindolizine-2-carboxamide]
- EC50 [3]: 7440 nM

Structure (SMILES): CCN(C(=O)c1cc2c(F)c(F)ccc2[nH]1)C(C)c1n[nH]c(=O)c2cc(F)c(F)cc12 (racemic) [Compound 49, N-(1-(6,7-difluoro-4-oxo-3,4-dihydrophthalazin-1-yl)ethyl)-N-ethyl-4,5-difluoro-1H-indole-2-carboxamide]
- EC50 [2]: 25 nM

Structure (SMILES): C[C@H](c1nn(C)c(=O)c2cc(F)c(F)cc12)N(C)C(=O)Nc1ccc(F)c(Cl)c1 [Compound 36, (R)-3-(3-chloro-4-fluorophenyl)-1-[1-(6,7-difluoro-3-methyl-4-oxo-phthalazin-1-yl)ethyl]-1-methyl-urea]
- EC50 [1]: 13 nM

Structure (SMILES): CC(C)CN(C(=O)Nc1ccc(F)c(Cl)c1)C(C)c1n[nH]c(=O)c2cc(F)c(F)cc12 (racemic) [Compound 27, 3-(3-chloro-4-fluorophenyl)-1-(1-(6,7-difluoro-4-oxo-3,4-dihydrophthalazin-1-yl)ethyl)-1-isobutylurea]
- EC50 [2]: 2 nM

Structure (SMILES): CC(c1n[nH]c(=O)c2cc(F)c(F)cc12)N(C)C(=O)c1ccc2ncoc2c1 (single isomer, unassigned) [Compound 91, N-(1-(6,7-difluoro-4-oxo-3,4-dihydrophthalazin-1-yl)ethyl)-N-methylbenzo[d]oxazole-6-carboxamide]
- EC50 [3]: 3860 nM

Structure (SMILES): CC(c1n[nH]c(=O)c2cc(F)c(F)cc12)N(C)C(=O)c1ccc(F)c(F)c1 (racemic) [Compound 70, N-(1-(6,7-difluoro-4-oxo-3,4-dihydrophthalazin-1-yl)ethyl)-3,4-difluoro-N-methylbenzamide]
- EC50 [2]: 890 nM

Structure (SMILES): CC(C)CN(C(=O)Nc1ccccc1)C(C)c1n[nH]c(=O)c2cc(F)c(F)cc12 (single isomer, unassigned) [Compound 39, 1-(1-(6,7-difluoro-4-oxo-3,4-dihydrophthalazin-1-yl)ethyl)-1-isobutyl-3-phenylurea]
- EC50 [1]: 3700 nM

Structure (SMILES): CC(C)CN(C(=O)Nc1ccccc1)C(C)c1n[nH]c(=O)c2cc(F)c(F)cc12 (racemic) [Compound 28, 1-(1-(6,7-difluoro-4-oxo-3,4-dihydrophthalazin-1-yl)ethyl)-1-isobutyl-3-phenylurea]
- EC50 [1]: 12 nM
